Assay results taken from patent US20080051454A1, “Compositions and methods for transient receptor potential vanilloid (TRPV) channel mediated treatments” (The Board of Trustees Operating Michigan State University, priority 2006, published 2008).
Several values for one entry are separate records, joined by “and”; a condition that tells them apart may be missing. Equal entries are not always repeated.

Legend:
[1] = tested on: male Wistar rats; assay: Depressor effect of 20-HETE analog DSR given IV, with or without antagonists; format: in vivo, rat
[2] = tested on: male Wistar rats; assay: Plasma CGRP and substance P after i.v. DSR (radioimmunoassay); format: in vivo, rat; conditions: after DSR 1 mg/kg iv
[3] = tested on: mesenteric arteries; assay: MethA-induced CGRP release from isolated mesenteric arteries (radioimmunoassay); parameters: species or system rat; conditions: arteries of NS-treated rats
Procedure: The arteries were dissected free of fat and connective tissues.
The preparations were incubated in a Krebs' solution of the following compositions (in mM): NaCl 119, NaHCO3 25, KH2PO4 1.2, MgSO4 1.5, CaCl2 2.5, KCl 4.7, and D-glucose 11. The Krebs' solution was maintained at 37 °C and gassed with 95% O2 and 5% CO2. After 1 h stabilization period, the arteries were transferred to another chamber containing 1 ml of Krebs' solution with the addition of 0.05% BSA and drugs. […] The tissues were removed after 20 min incubation, and the solutions were collected. At the end of the experiment, the tissues were blotted and weighted.
(§1) This antibody has 100% cross-reactivity with rat α-CGRP and 79% with rat β-CGRP. There is no cross-reactivity with rat amylin, calcitonin, somatostatin, or substance P.

[4] = tested on: Wistar rats fed a NS or HS diet for 3 weeks; assay: Plasma CGRP levels after MethA injection (radioimmunoassay); format: in vivo, rat; conditions: MethA 5 mg/kg
Text: Fifteen minutes after injection, when the prolonged depressor phase approached to the lowest point, the rats were decapitated for collection of blood for plasma CGRP assay.
as §1

[5] = tested on: Wistar rats fed a normal-salt (NS) or high-salt (HS) diet for 10 days; assay: MAP and HR responses to i.v. bolus NADA with or without antagonists in conscious rats; format: in vivo, rat; conditions: for decrease in mean arterial pressure (depressor effect): NADA iv (1, 4, 10 mg/kg; dose of this value not stated); for prolonged depressor effect of NADA (decrease in MAP) after antagonist: NADA 4 mg/kg after CAPZ 3 mg/kg, CGRP8-37 infusion or SR141716A 3 mg/kg
Text: In brief: Wistar rats were fed a normal (NS, 0.4%) or high (HS, 4%) sodium diet for 10 days, then artery and vein were cannulated for measurement of mean arterial pressure (MAP) or for injection of drugs and collection of plasma.
Animal Preparation: Male Wistar rats (7 weeks old, Charles River Laboratory, Wilmington, Mass.) were housed in the animal facility for 1 week before the experiment. Rats were grouped randomly and pair-fed a NS (0.4% of Na^+ by weight) or HS (4% of Na^+ by weight) diet for 10 days. The rat chow was purchased from Harlan Teklad Diets (Madison, Wis.). Drinking water was available ad libitum throughout the experiment. All protocols were in accordance with the National Institutes of Health Guidelines for the Care and Use of Laboratory Animals.
Surgical Preparation Rats were anesthetized with ketamine and xylazine (80 and 4 mg/kg intraperitoneally, respectively) for cannulation or with urethane (1.5 g/kg intraperitoneally) for capsaicin administration. The left jugular vein, carotid and femoral artery were cannulated under anesthesia for injection of drugs or monitoring of mean arterial pressure (MAP) and heart rate (HR).
Three hours after surgery, baseline MAP and its response to the above-mentioned drugs were obtained with the rats fully awake and unrestrained [Wang et al., Am J Physiol 2004; 287:H1868-H[874]. NADA was injected in increasing doses (1, 4, and 10 mg/kg intravenous bolus) in 3 subgroups of rats (each group for each dose). To determine the role of TRPV1 and CB 1 receptor in NADA-induced hypotension, NADA (4 mg/kg) was injected 10 minutes or 20 minutes after intravenous injection of CAPZ (3 mg/kg) or SR141716A (3 mg/kg), respectively.
To examine the effect of CGRP8-37 on NADA-induced hypotension, CGRP8-37 was intravenously administered at the rate of 1 mg/kg/min for 2 minutes followed by injection at the rate of 0.5 mg/kg/min for 15 minutes. NADA (4 mg/kg) was injected 1 minute after CGRPs-37 administration. The effectiveness of the dose and time frame for CGRP8-37 injection was verified by blockade of the hypotensive response to capsaicin (30 μg/kg) (n=5).

[6] = tested on: mesenteric arteries; assay: NADA-induced CGRP release from isolated mesenteric arteries (radioimmunoassay); parameters: species or system rat
Procedure: After an 1 h stabilization period, the arteries were transferred to another chamber containing 1 ml of Krebs's solution with the addition of 0.05% BSA and drugs including NADA (1 or 10 μM) or CAPZ (10 μM). The tissues were removed after 20 min incubation, and the solutions were collected and evaporated. […] At the end of the experiment, the tissues were blotted and weighted. […] The results are expressed as pg of milligram of tissues.
(§2) This antibody has 100% cross-reactivity with rat a-CGRP and 79% with β-CGRP. There is no cross-reactivity with rat amylin, calcitonin, somatostatin, or substance P. The assay was performed following the manufacturer's protocol.

[7] = tested on: Wistar rats fed a NS or HS diet for 10 days; assay: Plasma CGRP levels after NADA injection (radioimmunoassay); format: in vivo, rat; conditions: NADA 4 mg/kg
Procedure: Eight minutes after injection, when the depressor phase approached to the lowest point, the rats were sacrificed for collection of blood for plasma CGRP assay.
as §2

[8] = tested on: Wistar rats fed HS diet; assay: Blood pressure after i.v. SR141716A or CAPZ in conscious rats fed HS diet (Example I); format: in vivo, rat; conditions: 3 mg/kg iv
Procedure: Experiments were approved by the Institutional Animals Care and Use Committee. Experiments were performed using male Wistar rats (Charles River Laboratory, Wilmington, Mass.). Rats (6 weeks old) were housed in the animal facility for 1 week before the experiments. Rats were then randomly assigned to a normal-sodium (NS) diet (0.4% of Na+ by weight, Harlan Teklad) or HS (4% of Na+ by weight; Harlan Teklad) for 3 weeks. Rats drank water ad libitum throughout the experiment.
Surgical Preparation and MAP measurements: The rats were anesthetized with ketamine and xylazine (80 and 4 mg/kg intraperitoneally, respectively) for implantation of vascular catheters or with urethane ([…] intraperitoneally) throughout protocol 2. […]
Protocol 1: Rats fed a NS or HS diet were randomly assigned to 5 groups for intravenous injection of vehicle or MethA alone or in combination with SR141716A (a CB1 receptor antagonist), CAPZ (a VR1 receptor antagonist), or the combination of the 2 (n=5 to 8). Baseline MAP and its response to the aforementioned drugs were determined 3 hours after surgery when animals were fully awake and unrestrained as described previously. […]

## O=C(O)CCC/C=C\CCCCCCC/C=C\CCCCO [DSR]
[1]; DSR 1 mg/kg IV alone
  decrease in mean arterial pressure: 22.1±2.3 mmHg
[1]; rat, in vivo
  depressor effect among the analogs tested in vivo: most potent
[2]
  plasma CGRP levels: 273.4 ± 23.6 pg/mL
  plasma SP levels: 14.5 ± 1.6 pg/mL

## CCCCC/C=C\C/C=C\C/C=C\C/C=C\CCCC(=O)N[C@H](C)CO [MethA, methanandamide]
[3]; MethA 0.1 μM
  CGRP release: 4.81±0.75 pg/mg tissue
[3]; MethA 10 μM
  CGRP release: 14.89±2.36 pg/mg tissue
[4]; HS
  plasma CGRP levels: 78.1 ± 8.5 pg/mL
[4]; NS
  plasma CGRP levels: 50.4 ± 5.9 pg/mL

## CCCCC/C=C\C/C=C\C/C=C\C/C=C\CCCC(=O)NCCc1ccc(O)c(O)c1 [NADA, N-arachidonoyl dopamine]
[5]; NADA 1 mg/kg iv, HS diet
  peak decrease in MAP: 6±2 mmHg
[5]; NADA 1 mg/kg iv, NS diet
  peak decrease in MAP: 7±3 mmHg
[5]; NADA 4 mg/kg iv, HS diet
  peak decrease in MAP: 22±3 mmHg
[5]; NADA 4 mg/kg iv, NS diet
  peak decrease in MAP: 14±2 mmHg
[5]; NADA 10 mg/kg iv, HS diet
  peak decrease in MAP: 33±5 mmHg
[5]; NADA 10 mg/kg iv, NS diet
  peak decrease in MAP: 24±4 mmHg
[5]; HS diet
  decrease in mean arterial pressure (depressor effect): 16±3 mmHg
[5]; NS diet
  decrease in mean arterial pressure (depressor effect): 8±2 mmHg
[5]; after NADA iv
  HR during depressor effect: pronounced increase
  duration of prolonged depressor activity: approximately 20 minutes
  time of peak of prolonged depressor activity after administration: 7 to 9 min
[6]; NADA 1 μM, arteries of HS-treated rats
  CGRP release: 9.16±0.68 pg/mg tissue
[6]; NADA 1 μM, arteries of NS-treated rats
  CGRP release: 6.43±0.58 pg/mg tissue
[6]; NADA 10 μM, arteries of HS-treated rats
  CGRP release: 19.00±1.56 pg/mg tissue
[6]; NADA 10 μM, arteries of NS-treated rats
  CGRP release: 13.07±0.91 pg/mg tissue
[7]; HS
  plasma CGRP levels: 84.2 ± 7.2 pg/mL and 87.7 ± 5.6 pg/mL
[7]; NS
  plasma CGRP levels: 55.3 ± 4.6 pg/mL and 60.6 ± 5.1 pg/mL

## Cc1c(C(=O)NN2CCCCC2)nn(-c2ccc(Cl)cc2Cl)c1-c1ccc(Cl)cc1 [SR141716A]
[5]; HS diet
  prolonged depressor effect of NADA (decrease in MAP) after antagonist: 19±4 mmHg
[5]; NS diet
  prolonged depressor effect of NADA (decrease in MAP) after antagonist: 12±3 mmHg
[5]; NADA 4 mg/kg, NS and HS
  effect on initial transient hypotensive and brief pressor phases of NADA: did not affect
[8]
  duration of transient elevation in blood pressure after injection: no more than 15 minutes
